We go through three compounds from article PMC6158709, “Chemical genetic inhibition of DEAD-box proteins using covalent complementarity” (Nucleic Acids Research, 2018).

One assay addresses T1, HA-eIF4A^ES (Saccharomyces cerevisiae, UniProt P10081).
T1 construct: gene TIF1; HA-tagged ES mutant in yeast lysate, immunoprecipitated after labelling
The experiment in a line: competition of N-propargylmaleimide labelling, click TAMRA, in gel fluorescence after HA immunoprecipitation. The format is biochemical. The note with it: covalent; yeast lysate, 10 μM AMP-acrylate followed by 10 μM NPM.

For the next assay, the target named is T2, Dbp2 (Saccharomyces cerevisiae, UniProt P24783, S161C).
T2 construct: full-length, expressed in E. coli BL21 (DE3) as 6xHis-SUMO fusion, incubated with SUMO protease
T2 sequence (P24783 whole entry S161C, the tested form may be a part): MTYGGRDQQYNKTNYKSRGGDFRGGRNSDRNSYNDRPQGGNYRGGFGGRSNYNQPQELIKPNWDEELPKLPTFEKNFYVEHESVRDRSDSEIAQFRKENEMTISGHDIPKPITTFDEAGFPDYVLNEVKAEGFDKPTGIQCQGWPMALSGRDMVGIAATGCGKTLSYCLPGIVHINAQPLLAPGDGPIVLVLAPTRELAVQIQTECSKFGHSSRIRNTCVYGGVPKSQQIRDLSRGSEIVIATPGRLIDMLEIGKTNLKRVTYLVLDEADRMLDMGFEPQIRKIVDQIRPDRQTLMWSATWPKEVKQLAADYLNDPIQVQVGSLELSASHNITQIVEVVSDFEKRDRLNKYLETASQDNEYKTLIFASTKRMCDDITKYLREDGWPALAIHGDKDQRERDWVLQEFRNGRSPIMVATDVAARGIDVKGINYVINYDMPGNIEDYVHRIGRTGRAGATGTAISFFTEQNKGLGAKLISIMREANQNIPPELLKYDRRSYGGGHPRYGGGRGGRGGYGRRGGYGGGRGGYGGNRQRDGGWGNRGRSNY
The experiment in a line: RNA duplex unwinding assay. In kind it is biochemical. The settings on record: covalent; 0.5 μM enzyme, 2 mM ATP/MgCl2, pH 7.5, 5 min pre-incubation.

The target in another assay is T3, DDX3 (132-406) (Homo sapiens, UniProt O00571).
T3 construct: gene DDX3X; truncated, residues 132-406, recombinant, purified as previously described
T3 sequence (O00571 132-406): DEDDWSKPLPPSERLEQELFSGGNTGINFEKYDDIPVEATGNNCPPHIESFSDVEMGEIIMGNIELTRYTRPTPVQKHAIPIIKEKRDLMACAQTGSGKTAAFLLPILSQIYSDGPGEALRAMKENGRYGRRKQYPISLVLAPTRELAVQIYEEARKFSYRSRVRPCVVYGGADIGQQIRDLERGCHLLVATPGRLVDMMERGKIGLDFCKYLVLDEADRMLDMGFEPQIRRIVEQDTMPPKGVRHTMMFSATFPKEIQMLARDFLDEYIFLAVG
The experiment in a line: differential scanning fluorimetry. In kind it is binding. The note with it: saturating AMP; 4 μM protein, pH 7.5, 5 mM MgCl2. (DSF heats the sample and reads unfolding from a dye or from intrinsic fluorescence.)

In the next assay the target is T4, DDX3 (132-607) (Homo sapiens, UniProt O00571).
T4 construct: gene DDX3X; helicase core, residues 132-607, recombinant, purified as previously described
T4 sequence (O00571 132-607): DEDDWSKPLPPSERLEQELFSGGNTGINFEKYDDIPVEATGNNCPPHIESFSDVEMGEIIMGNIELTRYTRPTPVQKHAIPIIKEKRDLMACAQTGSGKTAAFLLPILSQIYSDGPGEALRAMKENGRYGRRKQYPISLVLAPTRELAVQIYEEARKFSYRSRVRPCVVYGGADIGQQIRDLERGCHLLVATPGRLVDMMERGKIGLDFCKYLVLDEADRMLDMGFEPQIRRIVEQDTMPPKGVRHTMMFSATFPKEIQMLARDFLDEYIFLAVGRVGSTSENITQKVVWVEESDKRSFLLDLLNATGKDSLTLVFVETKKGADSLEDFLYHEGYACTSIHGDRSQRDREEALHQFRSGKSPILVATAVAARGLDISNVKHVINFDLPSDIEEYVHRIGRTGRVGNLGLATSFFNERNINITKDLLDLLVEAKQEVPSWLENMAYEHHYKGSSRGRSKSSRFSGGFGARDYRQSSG
The experiment in a line: coupled ATPase assay, RNA-dependent. The note with it: duplex RNA; four ATP concentrations. The format is biochemical.

T1 sequence (P10081 2-395): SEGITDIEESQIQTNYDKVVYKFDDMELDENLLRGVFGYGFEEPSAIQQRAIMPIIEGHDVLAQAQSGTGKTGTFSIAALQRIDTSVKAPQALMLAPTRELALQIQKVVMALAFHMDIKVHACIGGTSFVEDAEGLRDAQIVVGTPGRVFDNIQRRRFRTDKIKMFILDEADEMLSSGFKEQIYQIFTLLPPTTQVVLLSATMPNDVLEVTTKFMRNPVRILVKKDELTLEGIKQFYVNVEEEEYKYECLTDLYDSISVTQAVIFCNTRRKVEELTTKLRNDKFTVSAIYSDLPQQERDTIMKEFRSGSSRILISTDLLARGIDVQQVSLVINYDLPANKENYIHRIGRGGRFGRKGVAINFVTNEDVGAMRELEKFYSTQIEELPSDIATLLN

For the compound `C=CC(=O)OP(=O)(O)OC[C@H]1O[C@@H](n2cnc3c(N)ncnc32)[C@H](O)[C@@H]1O` [AMP-acrylate], on HA-eIF4A^ES, the NPM labeling result was “labeling of HA-eIF4A^ES by NPM is competed by AMP-acrylate treatment”. In addition, the “fraction of RNA duplex unwound” value at Dbp2 is given as “duplex unwinding by ES Dbp2 (S161C) is reduced by AMP-acrylate”.

As to `Nc1ncnc2c1ncn2[C@@H]1O[C@H](COP(=O)(O)O)[C@@H](O)[C@H]1O` [AMP], the Tm entry at DDX3 (132-406) is “Saturating concentrations of AMP stabilizes DDX3^WT and DDX3^ES to the same extent”.

For `Nc1ncnc2c1ncn2[C@@H]1O[C@H](COP(=O)(O)OP(=O)(O)OP(=O)(O)O)[C@@H](O)[C@H]1O` [ATP], the “coupled ATPase assay, RNA-dependent” value on DDX3 (132-607) is “both DDX3^WT and DDX3^ES hydrolyzed ATP in the presence of duplex RNA”.
